Laboratory results reported in PubChem BioAssay (NCI).
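A five-concentration, 48-hour dose response in 96-well plates underlies each endpoint, interpolated linearly between surrounding concentrations. The concentration for full growth arrest is given as TGI.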

Experiments:
Assay in all cases: NCI anticancer screen, dose series, 48 h
EKVX NSCLC = system: EKVX NSCLC
HOP-62 NSCLC = system: HOP-62 NSCLC
TK-10 renal = system: TK-10 renal
SNB-75 CNS = system: SNB-75 CNS
CCRF-CEM leukemia = system: CCRF-CEM leukemia
M14 melanoma = system: M14 melanoma
MDA-N = system: MDA-N
OVCAR-5 ovarian = system: OVCAR-5 ovarian
MOLT-4 leukemia = system: MOLT-4 leukemia
NCI-H460 lung = system: NCI-H460 lung
DU-145 prostate = system: DU-145 prostate
MCF7 breast = system: MCF7 breast
RXF 393 renal = system: RXF 393 renal
MALME-3M melanoma = system: MALME-3M melanoma
NCI/ADR-RES ovarian = system: NCI/ADR-RES ovarian
K-562 leukemia = system: K-562 leukemia
UACC-257 melanoma = system: UACC-257 melanoma
T-47D breast = system: T-47D breast
SR leukemia = system: SR leukemia
OVCAR-4 ovarian = system: OVCAR-4 ovarian
HL-60(TB) leukemia = system: HL-60(TB) leukemia
ACHN renal = system: ACHN renal
SNB-19 CNS = system: SNB-19 CNS
SK-MEL-2 melanoma = system: SK-MEL-2 melanoma
HOP-92 NSCLC = system: HOP-92 NSCLC
HCT-15 colon = system: HCT-15 colon
SF-295 CNS = system: SF-295 CNS
SK-MEL-5 melanoma = system: SK-MEL-5 melanoma
A549 NSCLC = system: A549 NSCLC
OVCAR-3 ovarian = system: OVCAR-3 ovarian
HCC-2998 colon = system: HCC-2998 colon
COLO 205 colon = system: COLO 205 colon
U251 CNS = system: U251 CNS
RPMI-8226 leukemia = system: RPMI-8226 leukemia
SF-539 CNS = system: SF-539 CNS
KM12 colon = system: KM12 colon
UACC-62 melanoma = system: UACC-62 melanoma
LOX IMVI melanoma = system: LOX IMVI melanoma
MDA-MB-231 breast = system: MDA-MB-231 breast
CAKI-1 renal = system: CAKI-1 renal
OVCAR-8 ovarian = system: OVCAR-8 ovarian
SK-MEL-28 melanoma = system: SK-MEL-28 melanoma
A498 renal = system: A498 renal
PC-3 prostate = system: PC-3 prostate
HS 578T breast = system: HS 578T breast
HCT-116 colon = system: HCT-116 colon
SF-268 CNS = system: SF-268 CNS
BT-549 breast = system: BT-549 breast
MDA-MB-435 = system: MDA-MB-435
IGROV1 ovarian = system: IGROV1 ovarian
SK-OV-3 ovarian = system: SK-OV-3 ovarian
SN12C renal = system: SN12C renal
NCI-H23 lung = system: NCI-H23 lung
786-0 renal = system: 786-0 renal
HT29 colon = system: HT29 colon
SW-620 colon = system: SW-620 colon
UO-31 renal = system: UO-31 renal
NCI-H226 lung = system: NCI-H226 lung
NCI-H522 lung = system: NCI-H522 lung

CC(=O)NC1C(OCc2ccccc2)OC(CO)C(O)C1OCC(=O)NC(C)C(=O)NC(CCC(=O)NCCCCCC(=O)Nc1ccc2c(c1)CN1C(=O)c3ccccc3C1=N2)C(N)=O (stereo not given)
TGI (EKVX NSCLC): > 100 µM
TGI (HOP-62 NSCLC): > 100 µM
TGI (TK-10 renal): > 100 µM
TGI (SNB-75 CNS): > 100 µM
TGI (CCRF-CEM leukemia): > 100 µM
TGI (M14 melanoma): > 100 µM
TGI (MDA-N): > 100 µM
TGI (OVCAR-5 ovarian): > 100 µM
TGI (MOLT-4 leukemia): > 100 µM
TGI (NCI-H460 lung): > 100 µM
TGI (DU-145 prostate): > 100 µM
TGI (MCF7 breast): > 100 µM
TGI (RXF 393 renal): > 100 µM
TGI (MALME-3M melanoma): > 100 µM
TGI (NCI/ADR-RES ovarian): > 100 µM
TGI (K-562 leukemia): > 100 µM
TGI (UACC-257 melanoma): > 100 µM
TGI (T-47D breast): > 100 µM
TGI (SR leukemia): 42.5 µM
TGI (OVCAR-4 ovarian): > 100 µM
TGI (HL-60(TB) leukemia): > 100 µM
TGI (ACHN renal): > 100 µM
TGI (SNB-19 CNS): > 100 µM
TGI (SK-MEL-2 melanoma): > 100 µM
TGI (HOP-92 NSCLC): 90.9 µM
TGI (HCT-15 colon): > 100 µM
TGI (SF-295 CNS): > 100 µM
TGI (SK-MEL-5 melanoma): > 100 µM
TGI (A549 NSCLC): > 100 µM
TGI (OVCAR-3 ovarian): > 100 µM
TGI (HCC-2998 colon): > 100 µM
TGI (COLO 205 colon): > 100 µM
TGI (U251 CNS): > 100 µM
TGI (RPMI-8226 leukemia): > 100 µM
TGI (SF-539 CNS): > 100 µM
TGI (KM12 colon): > 100 µM
TGI (UACC-62 melanoma): > 100 µM
TGI (LOX IMVI melanoma): > 100 µM
TGI (MDA-MB-231 breast): > 100 µM
TGI (CAKI-1 renal): > 100 µM
TGI (OVCAR-8 ovarian): > 100 µM
TGI (SK-MEL-28 melanoma): > 100 µM
TGI (A498 renal): > 100 µM
TGI (PC-3 prostate): > 100 µM
TGI (HS 578T breast): > 100 µM
TGI (HCT-116 colon): > 100 µM
TGI (SF-268 CNS): > 100 µM
TGI (BT-549 breast): > 100 µM
TGI (MDA-MB-435): > 100 µM
TGI (IGROV1 ovarian): > 100 µM
TGI (SK-OV-3 ovarian): > 100 µM
TGI (SN12C renal): > 100 µM
TGI (NCI-H23 lung): > 100 µM
TGI (786-0 renal): > 100 µM
TGI (HT29 colon): > 100 µM
TGI (SW-620 colon): > 100 µM
TGI (UO-31 renal): > 100 µM

Clc1ccc(OCC2NC3C=CC32)cn1 (stereo not given)
TGI (EKVX NSCLC): 93.7 µM
TGI (HOP-62 NSCLC): > 100 µM
TGI (TK-10 renal): > 100 µM
TGI (SNB-75 CNS): > 100 µM
TGI (CCRF-CEM leukemia): > 100 µM
TGI (M14 melanoma): > 100 µM
TGI (MDA-N): > 100 µM
TGI (OVCAR-5 ovarian): > 100 µM
TGI (MOLT-4 leukemia): > 100 µM
TGI (NCI-H460 lung): > 100 µM
TGI (DU-145 prostate): > 100 µM
TGI (MCF7 breast): > 100 µM
TGI (RXF 393 renal): > 100 µM
TGI (MALME-3M melanoma): > 100 µM
TGI (NCI/ADR-RES ovarian): > 100 µM
TGI (K-562 leukemia): > 100 µM
TGI (UACC-257 melanoma): > 100 µM
TGI (T-47D breast): > 100 µM
TGI (SR leukemia): > 100 µM
TGI (OVCAR-4 ovarian): > 100 µM
TGI (HL-60(TB) leukemia): > 100 µM
TGI (ACHN renal): > 100 µM
TGI (NCI-H226 lung): > 100 µM
TGI (SNB-19 CNS): > 100 µM
TGI (SK-MEL-2 melanoma): > 100 µM
TGI (HOP-92 NSCLC): > 100 µM
TGI (HCT-15 colon): > 100 µM
TGI (SF-295 CNS): > 100 µM
TGI (SK-MEL-5 melanoma): > 100 µM
TGI (A549 NSCLC): > 100 µM
TGI (OVCAR-3 ovarian): > 100 µM
TGI (HCC-2998 colon): > 100 µM
TGI (COLO 205 colon): > 100 µM
TGI (U251 CNS): > 100 µM
TGI (RPMI-8226 leukemia): > 100 µM
TGI (SF-539 CNS): > 100 µM
TGI (KM12 colon): > 100 µM
TGI (UACC-62 melanoma): > 100 µM
TGI (LOX IMVI melanoma): > 100 µM
TGI (MDA-MB-231 breast): > 100 µM
TGI (CAKI-1 renal): > 100 µM
TGI (OVCAR-8 ovarian): > 100 µM
TGI (SK-MEL-28 melanoma): > 100 µM
TGI (PC-3 prostate): > 100 µM
TGI (HS 578T breast): > 100 µM
TGI (HCT-116 colon): > 100 µM
TGI (SF-268 CNS): > 100 µM
TGI (BT-549 breast): > 100 µM
TGI (MDA-MB-435): > 100 µM
TGI (IGROV1 ovarian): > 100 µM
TGI (SK-OV-3 ovarian): > 100 µM
TGI (NCI-H522 lung): > 100 µM
TGI (SN12C renal): > 100 µM
TGI (NCI-H23 lung): > 100 µM
TGI (786-0 renal): > 100 µM
TGI (HT29 colon): > 100 µM
TGI (SW-620 colon): > 100 µM
TGI (UO-31 renal): > 100 µM
